{"source": "patent US20240384268A1", "about": "“Oligonucleotides” (Hudson Institute of Medical Research, priority 2021, published 2024)", "molecular_target": "cGAS (Homo sapiens, UniProt Q8N884)", "sequence (Q8N884 whole entry)": "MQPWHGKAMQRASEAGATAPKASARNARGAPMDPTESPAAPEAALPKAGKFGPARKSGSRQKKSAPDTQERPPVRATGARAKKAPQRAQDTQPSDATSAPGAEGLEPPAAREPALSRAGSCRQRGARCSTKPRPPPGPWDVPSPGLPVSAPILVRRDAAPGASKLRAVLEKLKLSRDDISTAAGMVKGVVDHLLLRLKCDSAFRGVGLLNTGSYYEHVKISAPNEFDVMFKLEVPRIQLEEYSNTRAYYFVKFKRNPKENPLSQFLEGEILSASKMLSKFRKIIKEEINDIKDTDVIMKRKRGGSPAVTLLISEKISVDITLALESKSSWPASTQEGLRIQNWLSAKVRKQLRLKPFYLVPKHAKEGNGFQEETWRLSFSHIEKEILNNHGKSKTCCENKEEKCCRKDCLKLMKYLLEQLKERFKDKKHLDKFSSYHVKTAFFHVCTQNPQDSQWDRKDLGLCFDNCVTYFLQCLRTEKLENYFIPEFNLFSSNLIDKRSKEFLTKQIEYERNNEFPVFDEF", "experiment": "ISD70-driven IP-10 production in HT-29 cells, ELISA", "format": "cell-based", "design": "endogenous in cells", "conditions": "187.5 nM ASO overnight, ISD70 24 h", "note": "d = 2'-deoxy (DNA); m = 2'-O-methyl", "data": [{"substance": "mG*mC*mA*mG*mU*C*T*C*C*A*T*G*T*C*C*mC*mA*mG*mG*mC (GCAGUCTCCATGTCCCAGGC; antisense; sugars from the 5' end m5 d10 m5, all phosphorothioate, methylation of C not given here) [[CDKN2B-AS1]2234]", "values": [{"measurement": "inhibition of ISD70-dependent IP-10 production (in words)", "value": "robustly inhibited ISD70-dependent IP-10 production"}]}]}
